Holding throughout (assay type): in vivo, Spraque-Dawley rats
The test system of data set [1] is gastric mucosa. The data set can be described thus: Study 6: arachidonic and linoleic acid mucosal protection against acetylsalicylic acid. The following applies: for Macroscopic mucosal changes (lesion index, number of lesions x severity): 1 ml 120 mM AA or 240 mM LLC in PL 1 hour before 200 mg/kg aspirin intragastrically, 4 hours after acetyl salicylic acid; for Histologic evaluation: deep necrotic lesions / Mucosa by scanning electromicroscopy: 4 hours after aspirin, 120 mM AA or 240 mM LLC pretreatment. On the procedure:
(§1) The animals used in the examples were Spraque-Dawley rats (225 to 250 grams bodyweight). Twenty-four hours prior to the experimentation the animals were fasted in wire-bottomed cages to prevent coprophagy.
Rats were given intragastric treatment by peroral tube with 1 ml of PL solution, 1 ml of PL solution containing 120 mM arachidonic acid (AA), or 1 ml of PL solution containing 240 mM linoleic acid (LLC). One hour after such treatment a suspension of 200 mg/kg bodyweight of aspirin in 0.1 n HCI containing 1% methyl cellulose was administered intragastrically in 1 ml volume. The animals were sacrified 4 hours after acetyl salicylic acid administration.
• 1) Macroscopic quantitation of mucosal changes based on scoring system estimating presence or absence of hemorrhagic lesions, their number and severity graded on arbitrary scale 1 to 4. Lesion index, expressed as an average score (number of lesionsxseverity) was estimated per each group of animals. • 2) Mucosal histology • 3) Scanning electron microscopy

Data set [2] has as its system PGE2. The data set can be described thus: PGE2 measurement in gastric contents (radioimmunoassay, bioassay). On the procedure: PGE2 was measured by direct radioimmunoassay using antisera generated in rabbits by immunization of PGE2 linked to bovine thyroglobulin. For additional confirmation of PGE2 measurements, samples were also subjected to bioassay. After addition of approximately 5000 CPM of ^3H-labeled PGE2 for recovery calculations, samples were adjusted to pH 4.3 with 0.5 M phosphate buffer and extracted twice with ethyl acetate. The organic layer was subjected to thin layer chromatography (benzene:dioxane:acetic acid, 90:60:3), and the PGE2 fraction was extracted with methanol, dried and reconstituted in 0.9% NaCl for assay. A bioassay cascade (according to Vane) was used to assay simultaneously the samples in 2 aliquot sizes and on 3 rat stomach strips. The concentration of PGE2 in the gastric contents were measured in 2 groups of rats 30 or 60 minutes following intragastric installation of 1 ml of 120 mM arachidonic acid or 1 ml PL in order to determine the extent of arachidonic acid conversion to PGE2 by the gastric mucosa. The spontaneous release of PGE2 into the gastric lumen was assessed in animals receiving PL pretreatment only. In addition, PGE2 concentration in the original 120 mM arachidonic acid solution was measured before intragastric instillation.

For data set [3], the system named is liver. The data set can be described thus: Study 7: liver protection against ethanol, electron microscopy of hepatocytes. The note with it: 1 ml 120 mM AA (37 mg) in PL by gavage 1 hour before 2.5 ml 100% ethanol; sacrificed 24 hours later. On the procedure: 40 rats were given, by gavage, either 1 ml of 5 mM PL solution (as a control) or a 1 ml of 120 mM arachidonic acid in the 5 mM PL solution. One hour later the rats were given 2.5 ml of 100% ethanol and the animals sacrificed 24 hours later.
The liver was then removed and specimens fixed for 2 hours in 3.5% purified glutaraldehyde (buffered in 0.1 M phosphate of 7.4). The liver specimens were washed with buffer and postfixed in 1% osmium tetroxide at 0°C for 1 hour. After dehydration with graded ethanol the tissue was embedded in epoxy resin. Silver gray thin sections of the specimen were double stained with 2% uranyl acetate followed by lead citrate and examined with an RCA electron microscope.

In data set [4] the test system is gastric mucosa. The data set can be described thus: Study 2: arachidonic acid mucosal protection 15 hours after ethanol, computerized analysis of hemorrhagic area. The following applies: 1 ml 120 mM AA (37 mg) in PL intragastric 1 hour before 2 ml ethanol; evaluated 15 hours after ethanol; percent of total glandular mucosal area. The procedure:
as §1
One ml of 120 mM arachidonic acid solution (37 mg arachidonic acid) or 5 mM PI solution was instilled into the stomach 1 hour prior to the intragastric administration of 2 ml ethanol. The animals were killed 15 hours after ethanol administration and their stomachs were examined.
A camera with 100 mm macro lens was used to photograph the mucosal surface of the stomach. The same type of film and identical conditions of specimen distance from the lens, light intensity and film development were used throughout the study. Color slides were evaluated by a computerized image analysis. Each slide was converted to a black-and-white video image consisting of 65,000 points. White represented normal gastric mucosa, while gray or black represented hemorrhagic changes. […] Absolute white was given a 255 value while absolute black was given a value of 0. Boundaries delineating the glandular mucosa were drawn on the digital video image with a sonic pen. All spatial and contrast information was stored on a magnetic disk. […] The areas of hemorrhagic changes were expressed as the percentage of the entire gastric glandular mucosal area.

Data set [5] relates to gastric mucosa. The data set can be described thus: Study 1: arachidonic acid mucosal protection 3 hours after ethanol, computerized analysis of hemorrhagic area. The note with it: percent of total glandular mucosal area. The procedure:
as §1
Animals were given by gavage 1 ml of either saline, or 5 mM PL solution in saline, or 1 ml of the PL-saline solution containing arachidonic acid in 30, 60 and 120 mM concentrations respectively. One-half hour or 1 hour later, 2 ml of absolute ethanol were instilled into the stomach by gavage. Three hours later the animals were sacrificed and their stomachs removed.
A camera with 100 mm macro lens was used to photograph the mucosal surface of the stomach. The same type of film and identical conditions of specimen distance from the lens, light intensity and film development were used throughout the study. Color slides were evaluated by a computerized image analysis. Each slide was converted to a black-and-white video image consisting of 65,000 points. White represented normal gastric mucosa, while gray or black represented hemorrhagic changes. […] Absolute white was given a 255 value while absolute black was given a value of 0. Boundaries delineating the glandular mucosa were drawn on the digital video image with a sonic pen. All spatial and contrast information was stored on a magnetic disk. Each glandular mucosal area was classified interactively by slicing the spectrum of mucosal values into 2 or more subgroups and by displaying the resultant simplified digital image for verification with the more complex analog photographic input. Once a classification scheme was established, a spatial rendition of the picture's point was printed and plotted to scale on paper. A summary of the computer results was also printed and included boundary values for each gray-level slice and the absolute and relative areas of each class. The areas of hemorrhagic changes were expressed as the percentage of the entire gastric glandular mucosal area.

The test system of data set [6] is gastric mucosa. The data set can be described thus: Scanning electron microscopy of gastric mucosa after ethanol. The note with it: 3 hours after ethanol, arachidonic acid pretreated rats. From the text: Gastric mucosal specmens, fixed in 3.5% buffered glutaraldehyde were processed routinely for scanning electronmicroscopy and evaluated in a JOEL-35 scanning electronmicroscope operated at 20 kV.

Data set [7] concerns gastric mucosa. As to the kind of experiment: Study 5: arachidonic acid mucosal protection against taurocholic acid. The following applies: 1 ml 120 mM AA in PL; 3 ml 80 mM TCA in 0.1 n HCl twice; 3 hours after second TCA dose. On the procedure: as §1
Rats were given intragastric treatment by peroral tube with 1 ml of PL solution or 1 ml of PL solution containing 120 mM arachidonic acid (AA). The rats then received, intragastrically, 3 mls of a 80 mM solution of taurocholic acid (TCA) dissolved in 0.1 n in HCI, adminstered twice: one or two hours after PL or AA pretreatment. Animals were sacrificed 3 hours after second TCA administration.
Gastric mucosa was assessed macroscopically and histologically for damage in a similar manner as in studies with ethanol. […] These lesions corresponding histologically to necrotic lesions were similar to those seen after ethanol.

The test system of data set [8] is gastric mucosa. The data set can be described thus: Study 3: intragastric versus intrajejunal arachidonic acid, pylorus ligated, ethanol-induced gastric mucosal injury. The following applies: 1 hour before 2 ml ethanol, evaluated 2 hours after ethanol. The procedure: as §1
The next series of experiments was designed to compare the effect of intragastric to intrajejunal pretreatment with arachidonic acid on ethanol-induced gastric mucosal injury. The animals were anesthetized with nembutal (50 mg nembutal per kg body weight intraperitoneally), their abdomens were opened and either 1 ml of 120 mM arachidonic acid or 5 mM PL was installed intragastrically or 1 ml of 120 mM arachidonic acid intrajejunally with a polyethylene catheter introduced through a small duodenal incision. The pylorus was ligated immediately after solution instillation. One hour later the gastric contents were removed and 2 ml of ethanol were instilled through the catheter. The stomach was examined 2 hours later.
A camera with 100 mm macro lens was used to photograph the mucosal surface of the stomach. The same type of film and identical conditions of specimen distance from the lens, light intensity and film development were used throughout the study. Color slides were evaluated by a computerized image analysis. […] The areas of hemorrhagic changes were expressed as the percentage of the entire gastric glandular mucosal area.

Data set [9] has as its system gastric mucosa. The data set can be described thus: Histological studies of gastric mucosa (light microscopy). On the procedure:
Mucosal specimens 5 mm in width were cut from the forestomach to the pylorus. The specimens were obtained (a) 60 minutes after intragastric administration of 1 ml of solution containing either saline, PL or 120 mM arachidonic acid or (b) 3 hours after intragastric instillation of 2 ml of ethanol in animals which had received 1 ml of solution containing either saline or PL or 120 mM arachidonic acid 1 hour before ethanol. Specimens were fixed in buffered 10% formalin and stained. Coded specimens were examined "blindly" by light microscopy. In the histological evaluation special attention was paid to the continuity of the surface epithelium layer, presence or absence of hemorrhagic erosions, edema of the submucosa and infiltration with polymorphonuclear neutrophils.

The test system of data set [10] is gastric mucosa. As to the kind of experiment: Study 4: linoleic acid mucosal protection against ethanol. The note with it: 3 hours after ethanol. The procedure:
Twenty-four hours prior to the experimentation the animals were fasted in wire-bottomed cages to prevent coprophagy.
The rats were given intragastric treatment by peroral tube 1 ml of PL solution; 1 ml of the PL solution containing 120 mM linoleic acid (LLC) or 240 mM LLC; or 1 ml of 240 mM oleic acid solubilized in 5 mM PL. […] Macroscopic and histologic mucosal changes were evaluated as in the studies with arachidonic acid.

Where [11] appears, read: histology 3 hours after 2 ml absolute ethanol, pretreated with 1 ml 120 mM AA+PL 1 hour before.
Where [12] appears, read: 1 ml 240 mM in 5 mM PL intragastric pretreatment.

Marks after values point to notes of the source that are not given here.

`CCCCC/C=C\C/C=C\C/C=C\C/C=C\CCCC(=O)O` [AA, arachidonic acid]: the “Macroscopic mucosal changes (lesion index, number of lesions x severity)” value in data set [1] is 2±0.3. In addition, the “Histologic evaluation: deep necrotic lesions” value in data set [1] was “deep necrotic lesions did not occur”. In addition, the “Mucosa by scanning electromicroscopy” value in [1] is reported as “nearly normal mucosa”. The “values of PGE2 in the gastric content higher than in animals that received PL only” value in [2] (30 and 60 minutes after intragastric instillation, relative to PL group) was 5,000-13,000. Besides, the “PGE2 concentration (ng/ml)” value in [2] (gastric contents 30 min after intragastric instillation of 1 ml 120 mM AA) is listed as 7360.0* ng/ml; in data set [2] (gastric contents 60 min after intragastric instillation of 1 ml 120 mM AA), 4100.0* ng/ml. Also, the “ultrastructural changes in the hepatocytes” value in data set [3] is “most of the alcohol induced changes were virtually prevented”. Moreover, the “Hemorrhagic area*(%)” value in data set [4] stood at 0.6%; in [5] (1 ml 30 mM AA in 5 mM PL by gavage 1 hour before 2 ml ethanol, stomach evaluated 3 hours after ethanol) it was 15.4%; in [5] (1 ml 60 mM AA in 5 mM PL by gavage 1 hour before 2 ml ethanol, evaluated 3 hours after ethanol) it was 3.0%; in [5] (1 ml 120 mM AA in 5 mM PL by gavage 1 hour before 2 ml ethanol, evaluated 3 hours after ethanol) it was 0.6%; in [5] (Group E: 1 ml 120 mM AA in 5 mM PL by gavage 30 minutes before 2 ml ethanol, evaluated 3 hours after ethanol), 0.8%; in [8] (1 ml 120 mM AA intragastrically), 5.3%. Also, the “Hemorrhagic area*(%)” value in data set [8] (1 ml 120 mM AA intrajejunally) was found to be 28.1%. In data set [6], the “Mucosal surface by scanning electronmicroscopy” value is “nondisrupted and normal appearance”. Besides, the “mucosal lesions, macroscopically and histologically” value in data set [7] is reported as “not detectable”. For the same molecule, in data set [9] (60 minutes after intragastric 1 ml 120 mM arachidonic acid, no ethanol), the “Histological changes of gastric mucosa after the acid alone” value was “did not change the appearance of the gastric mucosa”. In data set [9] (setting [11]), the “Edema of submucosa accumulation of polymorphonuclears” value is recorded as “Present”. The Hemorrhagic erosions entry in data set [9] (setting [11]) is on record as “Absent”. In addition, the “The surface epithelium layer” value in data set [9] (setting [11]) is recorded as “Present, continuous (minor focal defects seen occasionally)”.
As to `CCCCC/C=C\C/C=C\CCCCCCCC(=O)O` [LLC, linoleic acid], in [1], the “Macroscopic mucosal changes (lesion index, number of lesions x severity)” value is given as 8±1; the “Histologic evaluation: deep necrotic lesions” value is “deep necrotic lesions did not occur”; the “Mucosa by scanning electromicroscopy” value is “nearly normal mucosa”. Moreover, the “macroscopic hemorrhagic lesions, % of glandular mucosal area” value (shortened to “macroscopic hemorrhagic lesions, %”) in [10] (1 ml 120 mM in 5 mM PL intragastric pretreatment) was 6.5±1%. Further, the “macroscopic hemorrhagic lesions, %” value in data set [10] (setting [12]) is 1.3±0.5%. Moreover, the “Mucosal histology: deep necrotic lesions” value in data set [10] is listed as “no deep necrotic lesions were present”. Moreover, in [10] (macroscopic, group pretreated with linoleic acid), the “edema in the forestomach” value is given as “marked edema in the forestomach”.
Take `CCCCCCCC/C=C\CCCCCCCC(=O)O` [oleic acid, reference compound]: in data set [10] (setting [12]), the “macroscopic hemorrhagic lesions, %” value was 29.1±3%. In addition, the “Mucosal histology: deep necrotic lesions” value in data set [10] is “deep hemorrhagic necrotic lesions penetrating into muscularis mucosa were present”.

The record behind these values is patent publication EP0101294B1, “Composition for protecting and healing gastro-duodenal mucosa and the liver of mammals” (THE REGENTS OF THE UNIVERSITY OF CALIFORNIA, priority 1982, dated 1984).
